# Laboratory results reported in the supplement of paper PMC11061612.
# Key:
# [1] = test system: KARPAS-1106P (B-Cell Non-Hodgkin's Lymphoma); assay: Bliss excess, mean over the matrix (fraction); higher = more synergy
# Method in brief: (§1)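 Cell lines in DMEM/F12 or RPMI with 10% FBS were plated in 1536-well plates, held 24 hours at 37°C, 5% CO2, then given two-drug dose matrices for 72 hours (DMSO typically 0.2%). Viability was read by CellTiter-Glo 2.0 luminescence and scaled as inhibition from 0 (vehicle wells) to 1 (blank wells). Combination Emax is the second-highest inhibition in the matrix; Bliss excess is observed combination effect minus expected EA + EB − EA·EB, EA and EB being single-agent effects.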
# [2] = test system: G-292-Clone-A141B1 (Osteosarcoma); assay: as above
# Method in brief: as §1
# [3] = test system: KM-H2 (Hodgkin's Lymphoma); assay: as above
# Method in brief: as §1
# [4] = test system: KATOIII (Gastric Carcinoma); assay: as above
# Method in brief: as §1
# [5] = test system: RH-1 (Ewing's Sarcoma); assay: as above
# Method in brief: as §1
# [6] = test system: NCI-H2595 (Mesothelioma); assay: as above
# Method in brief: as §1
# [7] = test system: SUIT-2 (Pancreatic Carcinoma); assay: as above
# Method in brief: as §1
# [8] = test system: SW1990 (Pancreatic Carcinoma); assay: as above
# Method in brief: as §1
# [9] = test system: NCI-H1694 (Small Cell Lung Carcinoma); assay: as above
# Method in brief: as §1
# [10] = test system: TGBC24TKB (Biliary Tract Carcinoma); assay: as above
# Method in brief: as §1
# [11] = test system: CTV-1 (T-Lymphoblastic Leukemia); assay: as above
# Method in brief: as §1
# [12] = test system: KARPAS-1106P (B-Cell Non-Hodgkin's Lymphoma); assay: combination Emax (second highest fraction inhibited in the dose matrix, 72 h); higher = more inhibition; extreme values may be limits of the assay
# Method in brief: as §1
# [13] = test system: HCC2157 (Breast Carcinoma); assay: as above
# Method in brief: as §1
# [14] = test system: DMS-273 (Small Cell Lung Carcinoma); assay: as above
# Method in brief: as §1
# [15] = test system: G-292-Clone-A141B1 (Osteosarcoma); assay: as above
# Method in brief: as §1
# [16] = test system: NALM-6 (B-Lymphoblastic Leukemia); assay: as above
# Method in brief: as §1
# [17] = test system: IGR-1 (Melanoma); assay: as above
# Method in brief: as §1
# [18] = test system: SW1088 (Low Grade Glioma); assay: as above
# Method in brief: as §1
# [19] = test system: NCI-H2595 (Mesothelioma); assay: as above
# Method in brief: as §1
# [20] = test system: CTV-1 (T-Lymphoblastic Leukemia); assay: as above
# Method in brief: as §1
# 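For Bliss excess, mean over the matrix in this document: after 72 h of two-drug dosing.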
SMILES,Bliss excess [1],Bliss excess [2],Bliss excess [3],Bliss excess [4],Bliss excess [5],Bliss excess [6],Bliss excess [7],Bliss excess [8],Bliss excess [9],Bliss excess [10],Bliss excess [11],combination Emax [12],combination Emax [13],combination Emax [14],combination Emax [15],combination Emax [16],combination Emax [17],combination Emax [18],combination Emax [19],combination Emax [20]
"C[C@@H](c1ccc2nccn2c1)n1nnc2ncc(-c3cnn(C)c3)nc21 [Savolitinib] + CC1(C)CCC(CN2CCN(c3ccc(C(=O)NS(=O)(=O)c4ccc(NCC5CCOCC5)c([N+](=O)[O-])c4)c(Oc4cnc5[nH]ccc5c4)c3)CC2)=C(c2ccc(Cl)cc2)C1 [Venetoclax] (first compound max 1 µM, 7x7, partner max 1 µM)",-0.0157,-0.0442,0,-0.0364,-0.0321,0.006,-0.0737,-0.0219,-0.0286,-0.0283,-0.0245,0.2,0.186,0.239,0.0932,0.316,0.114,0.224,0.227,0.091
"Cc1c2c(nn1C)CSCc1cc(n(C)n1)CSc1cc(c3ccccc3c1)OCCCc1c(C(=O)O)n(C)c3c-2c(Cl)ccc13 [AZD5991] + Cn1cnc2c(F)c(Nc3ccc(Br)cc3Cl)c(C(=O)NOCCO)cc21 [Selumetinib] (first compound max 1 µM, 7x7, partner max 3 µM)",0.0497,-0.0558,0.0029,-0.0085,-0.0127,0.0101,-0.0135,-0.0222,-0.0048,0.0488,0.036,0.979,0.982,0.987,0.221,0.369,0.622,0.229,0.283,0.187
"Cc1c2c(nn1C)CSCc1cc(n(C)n1)CSc1cc(c3ccccc3c1)OCCCc1c(C(=O)O)n(C)c3c-2c(Cl)ccc13 [AZD5991] + C[C@@H]1COCCN1C2=NC(=NC(=C2)C3(CC3)[S@](=N)(=O)C)C4=C5C=CNC5=NC=C4 [AZD6738] (first compound max 1 µM, 7x7, partner max 10 µM)",0.0182,-0.001,0.0236,-0.0192,-0.0221,-0.0124,-0.0025,-0.0062,0.0064,-0.006,0.0021,0.965,0.998,0.98,0.281,0.895,0.852,0.565,0.299,0.781
"NC1(C(=O)N[C@@H](CCO)c2ccc(Cl)cc2)CCN(c2ncnc3[nH]ccc23)CC1 [Capivasertib] + CCN(CCO)CCCOc1ccc2c(Nc3cc(CC(=O)Nc4cccc(F)c4)[nH]n3)ncnc2c1 [AZD2811] (first compound max 10 µM, 7x7, partner max 1 µM)",0.0426,0.0116,-0.0195,-0.0213,0.0222,-0.0718,-0.0074,-0.033,0.0503,0.0111,0.0423,0.502,1,0.906,0.245,0.907,0.465,0.642,0.261,0.636
"COc1nnc2ccc(N3CCC(c4ccc(OCCN5CCN(C)C(=O)[C@H]5C)cc4)CC3)nn12 [AZD5153] + Cn1cnc2c(F)c(Nc3ccc(Br)cc3Cl)c(C(=O)NOCCO)cc21 [Selumetinib] (first compound max 1 µM, 7x7, partner max 10 µM)",0.013,-0.0388,-0.0839,-0.0294,-0.0267,-0.0604,0.0227,-0.0209,-0.0641,0.158,0.0009,0.699,1,0.71,0.317,0.886,0.938,0.513,0.364,0.99
"Cc1cc2ncnn2cc1Nc1ncc2c(n1)n(C1CCOCC1)c(=O)n2C [AZD7648] + CN(C)CCCOc1ccc(-c2ccc3ncc4c(c3c2)n(C2CCOCC2)c(=O)n4C)cn1 [AZD0156] (first compound max 10 µM, 7x7, partner max 1 µM)",0.0083,-0.0261,0.0208,-0.0204,0.0087,-0.0373,-0.0125,-0.0182,0.0062,0.009,0.0449,0.423,0.478,0.411,0.341,0.323,0.0864,0.419,0.208,0.262
